The source of these data is PMC10295463, “Computational Characterization of the Binding Properties of the HIV1-Neutralizing Antibody PG16 and Design of PG16-Derived CDRH3 Peptides” (Biology, 2023).

Bridge positions count the residues as written; N and C are the ends. Square brackets hold non-standard residues; d marks the D form. Peptide text beside a SMILES is read from it. * marks the point of attachment. Biotin = O=C1N[C@H]2[C@H](CS[C@H]2CCCCC(=O)*)N1; pY = N[C@@H](Cc1ccc(OP(=O)(O)O)cc1)C(=O)O; AEEA = NCCOCCOCC(=O)O

The experiment addresses T1, gp120 HxBc2 (Human immunodeficiency virus type 1 group M subtype B, UniProt P04578).
T1 construct: incubated for 3 h with gp120 HxBc2 (ImmuneTech); purchased ImmuneTech
Briefly: Peptide binding assay (ELISA): gp120 binding to immobilized biotinylated peptide. Also noted: species or system HIV-1. The note with it: same ELISA, gp120 up to 16.6 nM. The procedure:
High-binding Corning Costar microtiter half-area plates were coated with Neutravidin (Thermo Scientific, Dreieich, Germany, 4.0 μ g /mL) in 0.1 M carbonate buffer pH 9.6, overnight at 4 ^∘C . After the blocking of unspecific binding with 1% BSA in 0.1 M phosphate buffer pH 7.2, for 1 h , the neutravidin-coated plate was incubated with 2 μ m biotinylated peptide for 2 h . Plates were then incubated for 3 h with gp120 HxBc2 (ImmuneTech, New York, NY, USA) at three-fold serial dilutions, starting at 16.6 nM. Bound gp120 was detected with sheep anti-gp120 (Aalto Bio Reagents, Dublin, Ireland) 0.1 μ g /mL) for 1 h , followed by rabbit anti-sheep-HRP conjugate (Jackson Immuno Research, Ely, UK, 0.1 μ g /mL) for 1 h . All peptides and proteins were diluted in 0.1 M phosphate buffer pH 7.2, containing 0.01% Tween. Plates were developed with OPD ( 1 m g /mL) in the presence of 0.03% H2O2 for approximately 10 min in the dark. After the reaction was stopped with 2 M H2SO4, absorbance was read at 492 n m . The absorbance of the blanks (samples without peptide) was subtracted. All data points present means of duplicates. Curves were fitted and EC50 values calculated using the program Origin 2021 (OriginLab Corporation, Northampton, MA, USA).
Background: In an ELISA, binding on a coated surface is turned into a signal by an enzyme label.

Turning to `CC[C@H](C)[C@@H]1NC(=O)[C@@H](NC(=O)CNC(=O)COCCOCCNC(=O)CCCC[C@@H]2SC[C@@H]3NC(=O)N[C@@H]32)CSSC[C@@H](C(=O)N[C@@H](Cc2ccc(O)cc2)C(=O)N[C@@H](Cc2ccc(OP(=O)(O)O)cc2)C(=O)N[C@@H](CC(=O)O)C(=O)N[C@@H](Cc2ccccc2)C(=O)N[C@@H](CC(N)=O)C(=O)N[C@@H](CC(=O)O)C(=O)NCC(N)=O)NC(=O)[C@H](C(C)C)NC(=O)[C@H](CC(=O)O)NC(=O)[C@H](CC(=O)O)NC(=O)[C@H](Cc2c[nH]cn2)NC(=O)[C@H](Cc2c[nH]c3ccccc23)NC1=O` [LW40.2] ({Biotin-AEEA}-GCIWHDDVCY[pY]DFNDG-NH2; disulfide 2-9), the “binding of gp120 to the peptide (in words)” value is “no detectable binding at all”.
